Test results from patent publication US10292972B1, “Pharmaceutical composition for treating cancer and a method thereof” (King Abdulaziz University, priority 2017, dated 2019).

Columns and labels:
MCF7 breast cancer cells [1] = test: Hoechst 33342 staining of nuclear morphological changes (apoptosis); assay type: cell-based, human; conditions: MCF7, 150 μM, 24 hrs, FIG. 3B
Protocol: MCF7 cells (2×10^4 cells/well) were treated with 3 μM, 30 μM, 300 μM, 600 μM, 1.5 mM of isopicrinine at 37° C. in a humidified incubator with 5% CO2 for 20 hrs. After the drug treatment, cells were analysed under phase contrast microscope. Cytotoxicity was detected at 300 μM concentration onwards in all the samples. […] The nuclear morphological changes, which are mainly associated with apoptosis were analysed by Hoechst 33342 staining. Briefly, MCF7 cells (2×10^4 cells/well) were grown on coverslips and treated with 150 μM of purified alkaloid for 24 hrs. The cells were washed with Dulbecco's phosphate buffer saline (DPBS) and fixed with 100% methanol for 15 min at room temperature. Cells were washed with DPBS and stained with Hoechst 33342 for 15 min at room temperature. The cells were washed thrice with DPBS and analysed under fluorescent microscope (Nikon, Japan).

AsPC1 cell line = test: cells; assay type: cell-based; conditions: Homo sapiens, ASPC1, 24 h, read-out: % Cell viability
Protocol: (§1) MCF7, a breast cancer cell line was procured from the American Type Culture Collection (ATCC) and propagated in Dulbecco's Modified Eagle's medium (DMEM) supplemented with 10% (v/v) fetal bovine serum (FBS), 100 μg/ml streptomycin and 100 U/ml penicillin at 37° C. in a humidified incubator with 5% CO2. Human pancreatic cell lines, AsPC1 and PANC1, were obtained from the American Type Culture Collection (ATCC). AsPC1 cell line was grown in RPMI-1640 medium supplemented with 10% (v/v) fetal bovine serum (FBS), 100 μg/ml streptomycin and 100 U/ml penicillin. PANC1 cell line was cultured in DMEM supplemented with 10% (v/v) fetal bovine serum (FBS), 100 μg/ml streptomycin and 100 U/ml penicillin.
(§2) PANC1 and AsPC1 cells (1.3×10^4 cells/well) were sub-cultured in 96-well plates and incubated at 37° C. in a humidified incubator with 5% CO2 for 24 hrs. Varying concentrations of isopicrinine (i.e., 0, 30 μM, 75 μM, 150 μM and 300 μM were added to the cultured cells and further incubated at 37° C. in a humidified incubator with 5% CO2 for 24 hrs. The cell viability was determined using MTT (3-(4,5-dimethylthiazol-2-yl)-2,5-diphenyltetrazolium bromide) assay by following the manufacturer's instructions. Briefly, 20 μl/well of MTT was added to the cells and plates were incubated for 4 hrs. After the incubation, media along with the MTT was removed and 150 μl/well of isopropanol was added and further incubated for 15 min on shaker incubator. Spectrophotometer readings were taken at 450 nm and 630 nm. This assay is based on the conversion of yellow tetrazolium salt MTT to purple formazan crystal by metabolically active cells. The amount of formazan produced is proportional to the number of viable cells.

PANC1 cell line = test: cells; assay type: cell-based; conditions: Homo sapiens, PANC-1, 24 h, read-out: % Cell Viability
Protocol: as §1, §2

MCF7 breast cancer cells [2] = test: RNA-Seq gene expression profiling of isopicrinine-treated MCF7 cells; assay type: cell-based, human; conditions: for number of upregulated genes / number of downregulated genes: vs DMSO-treated control, P value <0.05; for number of downregulated genes: fold change <−1
Protocol: MCF7 cells (1.6×10^5 cells) were treated with varying doses (sub-lethal) of purified isopicrinine i.e., 30 μM and 150 μM, in triplicates, for 18 hrs at 37° C. Total RNA was extracted using TRIzol reagent. Gene expression analyses of drug-treated MCF7 cells in the presence of sub-lethal concentrations of isopicrinine were performed using Illumina HiSeq. Each RNA was ribo-depleted (Ribo-Zero, Epicentre) prior to cDNA libarary preparation (ScriptSeq epicenter). Each cDNA was separately barcode tagged during library preparation, and sequenced in multiplex generating approximately >40 million 100 bp reads per sample for the mammalian cell line. The Illumina reads were mapped to their respective assembled reference transcriptome sequence using the mapping software TopHat and Cufflinks (Trapnell, C., Pachter, L., Salzberg, S. L. 2009. TopHat: discovering splice junctions with RNA-Seq. Bioinformatics, May 1; 25(9):1105-11. doi: 10.1093/bioinformatics/btp120, incorporated herein by reference in its entirety). Illumina read abundances mapping to each reference contig was normalized using the RPKM (reads per Kb per million reads) calculation. Differentially expressed transcripts were identified and functionally annotated using a variety of statistical analyses available via bioconductor in R language (Durinck, S., Moreau, Y., Kasprzyk, A., Davis, S., De Moor, B., Brazma, A., Huber, W. 2005. BioMart and Bioconductor: a powerful link between biological databases and microarray data analysis. Bioinformatics, 21(16), 3439-3440. doi: 10.1093/bioinformatics/bti525, incorporated herein by reference in its entirety). Clusters of differentially expressed and cycling transcripts were annotated to identify over-represented GO/KEGG pathways (Kanehisa, M., Goto, S., Sato, Y., Furumichi, M., Tanabe, M., 2012. KEGG for integration and interpretation of large-scale molecular data sets. Nucleic Acids Res., 40 (Database issue), D109-14. doi: 10.1093/nar/gkr988, incorporated herein by reference in its entirety).
MCF7 cell line was treated with sub-lethal doses of 30 μM and 150 μM of isopicrinine. […] RNA-Seq transcription profiling was performed for analyzing the transcriptome profile in alkaloid treated MCF7 cells in order to evaluate the pharmacological effects of the new alkaloid isolated from Rhazya stricta. To identify the differentially regulated/expressed genes after treatment with isopicrinine, RNA was extracted from alkaloid treated MCF7 cells (30 μM and 150 μM doses) and DMSO-treated control cells and RNA-Seq experiment was carried out. The sequencing data were compared and analyzed to identify the differentially expressed genes in mammalian cells after treatment with isopicrinine.

[3] = MCF7, vs DMSO control, Cell divsion, dose not given
[4] = MCF7, vs DMSO control, Chromosone Organization, dose not given

With `C/C=C1\CN2[C@H]3C[C@@H]1[C@@H](C(=O)OC)[C@]14C[C@H]2O[C@]31Nc1ccccc14` [isopicrinine] the “nuclear morphology, Hoechst 33342 staining” value (MCF7 breast cancer cells [1]) was “chromatin condensation and nuclear fragmentation”, the viability at 30 µM (AsPC1 cell line) was 87.7% and the viability at 75 µM (AsPC1 cell line) was 55.9%. It also gave a viability at 150 µM (AsPC1 cell line) of 53.5%, a viability at 300 µM (AsPC1 cell line) of 42.4% and a viability at 30 µM (PANC1 cell line) of 74.5%. The viability at 75 µM (PANC1 cell line) was 70.8%, the viability at 150 µM (PANC1 cell line) was 69.6% and the viability at 300 µM (PANC1 cell line) was 64.6%. The “expression of Mxi1 gene” value (MCF7 breast cancer cells [2]; MCF7) was “significantly upregulated”, the “expression of cell cycle and cell proliferation genes (CDC6, CDK1, CDCA5, DLGAP5, NUSAP1, KIF23, PRC1, BIRC5, AURKB, NDC80, CDC45)” value (MCF7 breast cancer cells [2]; MCF7, 30 μM) was “not affected” and the “cytotoxicity at sub-lethal doses” value (MCF7 breast cancer cells [2]; MCF7, 30 μM and 150 μM, 18 hrs) was “No cytotoxicity was detected”. The “number of upregulated genes” value (MCF7 breast cancer cells [2]; MCF7, 30 μM) was 148 genes, the “number of downregulated genes” value (MCF7 breast cancer cells [2]; MCF7, 30 μM) was 64 genes and the “expression of cell cycle and cell proliferation genes (CDC6, CDK1, CDCA5, DLGAP5, NUSAP1, KIF23, PRC1, BIRC5, AURKB, NDC80, CDC45)” value (MCF7 breast cancer cells [2]; MCF7, 150 μM) was “significantly downregulated”. The “number of downregulated genes” value (MCF7 breast cancer cells [2]; MCF7, 150 μM) was 59 genes, the “number of upregulated genes” value (MCF7 breast cancer cells [2]; MCF7, 150 μM, fold change >1) was 36 genes and the “expression of cell division and mitosis genes (PTTG1, DLGAP5, Cdc6, NDC80, KIF15, KIF23, PRC1, NUSAP1, Aurora B kinase, CDCA5, ATAD2)” value (MCF7 breast cancer cells [2]; MCF7, high dose) was “downregulated”. The “expression of pro-apoptotic gene PUMA (BBC3)” value (MCF7 breast cancer cells [2]; MCF7, sub-lethal dose, FIG. 5) was “upregulated”, the “expression of survivin (BIRC5)” value (MCF7 breast cancer cells [2]; MCF7, sub-lethal doses) was “Downregulation” and the “log2 (fold change) ASPM” value (MCF7 breast cancer cells [2]; [3]) was −1.3045. For the same compound, the “log2 (fold change) AURKB” value (MCF7 breast cancer cells [2]; [3]) was −1.646, the “log2 (fold change) BIRC5” value (MCF7 breast cancer cells [2]; [3]) was −0.9572 and the “log2 (fold change) CDC6” value (MCF7 breast cancer cells [2]; [3]) was −2.322. The “log2 (fold change) CDCA5” value (MCF7 breast cancer cells [2]; [3]) was −1.551, the “log2 (fold change) CDK1” value (MCF7 breast cancer cells [2]; [3]) was −1.149 and the “log2 (fold change) FBXO5” value (MCF7 breast cancer cells [2]; [3]) was −1.067. The “log2 (fold change) KIF23” value (MCF7 breast cancer cells [2]; [3]) was −0.905, the “log2 (fold change) NCAPG” value (MCF7 breast cancer cells [2]; [3]) was −1.314 and the “log2 (fold change) NCAPH” value (MCF7 breast cancer cells [2]; [3]) was −1.018. For the same compound, the “log2 (fold change) NDC80” value (MCF7 breast cancer cells [2]; [3]) was −1.343, the “log2 (fold change) NUSAP1” value (MCF7 breast cancer cells [2]; [3]) was −1.539 and the “log2 (fold change) PRC1” value (MCF7 breast cancer cells [2]; [3]) was −1.527. For the same compound, the “log2 (fold change) PTTG1” value (MCF7 breast cancer cells [2]; [3]) was −1.05, the “log2 (fold change) SGOL1” value (MCF7 breast cancer cells [2]; [3]) was −1.044 and the “log2 (fold change) DLGAP5” value (MCF7 breast cancer cells [2]; [4]) was −1.263. For the same compound, the “log2 (fold change) ESPL1” value (MCF7 breast cancer cells [2]; [4]) was −1.9647, the “log2 (fold change) H2AFZ” value (MCF7 breast cancer cells [2]; [4]) was −0.952 and the “log2 (fold change) HIST1H1B” value (MCF7 breast cancer cells [2]; [4]) was −2.278. The “log2 (fold change) HIST1H2AJ, HIST1H2AK” value (MCF7 breast cancer cells [2]; [4]) was −2.034, the “log2 (fold change) HIST1H2AM, HIST1H3J” value (MCF7 breast cancer cells [2]; [4]) was −2.034 and the “log2 (fold change) HIST1H2BL” value (MCF7 breast cancer cells [2]; [4]) was −2.032. The “log2 (fold change) HIST2H2AA4, HIST2H2AC” value (MCF7 breast cancer cells [2]; [4]) was −1.505, the “log2 (fold change) HIST2H2AB” value (MCF7 breast cancer cells [2]; [4]) was −2.144 and the “log2 (fold change) HIST2H2BF” value (MCF7 breast cancer cells [2]; [4]) was −1.757. The “log2 (fold change) HIST2H3C” value (MCF7 breast cancer cells [2]; [4]) was −2.716.
